In the CheMixHub viscosity set:

Experiment: xn = mol fraction of the nth substance listed

CCOCCO + Cc1ccc(C)cc1
viscosity [mPa·s], 101 kPa
Conditions	298.15 K	308.15 K
x1 = 0.0551	0.632	0.555
x1 = 0.1489	0.672	0.584
x1 = 0.2499	0.725	0.625
x1 = 0.3507	0.792	0.674
x1 = 0.4514	0.875	0.735
x1 = 0.5001	0.922	0.769
x1 = 0.5497	0.975	0.808
x1 = 0.6526	1.106	0.9
x1 = 0.7513	1.262	1.01
x1 = 0.8499	1.456	1.143
x1 = 0.9549	1.717	1.319

CCOCCO + CCc1ccccc1
viscosity [mPa·s]
Conditions	298.15 K	308.15 K
101 kPa, x1 = 0.0573	0.658	0.557
101 kPa, x1 = 0.1487	0.696	0.597
101 kPa, x1 = 0.2498	0.749	0.648
101 kPa, x1 = 0.3527	0.817	0.708
101 kPa, x1 = 0.4489	0.895	0.773
101 kPa, x1 = 0.4998	0.944	0.812
101 kPa, x1 = 0.5485	0.995	0.852
101 kPa, x1 = 0.6501	1.121	0.945
101 kPa, x1 = 0.7484	1.273	1.05
101 kPa, x1 = 0.8508	1.469	1.178
101 kPa, x1 = 0.9547	1.721	1.331
101.33 kPa, x2 = 0.0993	1.589	–
101.33 kPa, x2 = 0.1968	1.378	–
101.33 kPa, x2 = 0.293	1.22	–
101.33 kPa, x2 = 0.4069	1.055	–
101.33 kPa, x2 = 0.5133	0.929	–
101.33 kPa, x2 = 0.6286	0.822	–
101.33 kPa, x2 = 0.7484	0.736	–
101.33 kPa, x2 = 0.8672	0.677	–

CC(C)CCO + C1COCO1
viscosity [mPa·s], 101 kPa
Conditions	x2 = 0.1168	x2 = 0.2293	x2 = 0.3377	x2 = 0.4424	x2 = 0.5434	x2 = 0.6409	x2 = 0.7352	x2 = 0.8264	x2 = 0.9146
298.15 K	3.017	2.523	2.174	1.884	1.366	0.9079	0.8074	0.7367	0.6474
303.15 K	2.3	1.806	1.458	1.167	0.9949	0.8818	0.7812	0.7104	0.6212

COCc1ccccc1 + CCCCCOC(C)=O
Conditions	viscosity [mPa·s]
298.15 K, 101 kPa, x2 = 0.5	0.8479

CC(CC(C)(C)C)CP(=O)(O)CC(C)CC(C)(C)C (stereo unspecified) + ClC(Cl)Cl
298.15 K, 101 kPa
Conditions	viscosity [mPa·s]
x1 = 0.0053	0.568
x1 = 0.0095	0.615
x1 = 0.011	0.638
x2 = 0.1271	90.02
x2 = 0.2117	75.09
x2 = 0.3912	50.44
x2 = 0.5499	30.02
x2 = 0.7028	11.91
x2 = 0.7739	6.921
x2 = 0.8002	5.613
x2 = 0.8091	5.202
x2 = 0.8378	3.942
x2 = 0.8852	2.458
x2 = 0.8924	2.301
x2 = 0.9394	1.35
x2 = 0.9426	1.28
x2 = 0.9762	0.818

CC(CC(C)(C)C)CP(=O)(O)CC(C)CC(C)(C)C (stereo unspecified) + Cc1ccccc1
298.15 K, 101 kPa
Conditions	viscosity [mPa·s]
x1 = 0.0069	0.589
x1 = 0.0129	0.633
x1 = 0.0143	0.65
x2 = 0.1117	88.23
x2 = 0.2037	66.68
x2 = 0.3198	43.9
x2 = 0.4972	20.43
x2 = 0.6533	9.197
x2 = 0.7579	4.844
x2 = 0.7674	4.562
x2 = 0.8571	2.218
x2 = 0.8649	2.075
x2 = 0.9241	1.252
x2 = 0.9269	1.219
x2 = 0.9692	0.778

CCOCCO + CCCCCO
298.15 K, 101 kPa
Conditions	viscosity [mPa·s]
x1 = 0.098	3.167
x1 = 0.1965	2.864
x1 = 0.2954	2.619
x1 = 0.3947	2.431
x1 = 0.4945	2.283
x1 = 0.5947	2.178
x1 = 0.6953	2.099
x1 = 0.7964	2.027
x1 = 0.898	1.954

CCC(=O)O.OCCNCCO + CCO
303.15 K, 101 kPa
Conditions	viscosity [mPa·s]
x1 = 0.5084	116.5
x1 = 0.6965	177.5
x1 = 0.804	226.5

CC12CCC(CC1=O)C2(C)C (stereo unspecified) + CCCCCCCCCC(=O)O
101.33 kPa, x2 = 0.7
Conditions	viscosity [mPa·s]
298.15 K	10.76
303.15 K	9.184
308.05 K	7.889
313.05 K	6.866
318.15 K	6.143
323.05 K	5.9
